30 molecules from patent US10000452B1, “Quinolone-based compounds, formulations, and uses thereof” (University of South Florida, priority 2016, dated 2018) can be followed below.

Where two headings read alike, the source gives them in different places.

The test system of one data set is J774 mammalian cells. As to the kind of experiment: cytotoxicity to J774 cells. It is filed as cell-based. The following applies: Mus musculus. The protocol:
This allowed a simplified method for comparing the different assays being simultaneously run. Additionally, each compound was also tested for cytotoxicity using mammalian J774 cell lines in a 96-well plate format.^12-14, 16

Data set [1] deals with malarial strain TM90-C2B (mefloquine, chloroquine, atovaquone, and pyrimethamine-resistant). The data set is described as follows: microbe, parasite or virus in culture. Format: cell-based, P. falciparum. As to conditions: for RI: RI = EC50 TM90-C2B/EC50 W2; for EC50: Plasmodium falciparum, TM90, read-out: EC50 TM90-C2B (nM); for EC50 TM90-C2B (nM): blood stage in vitro, atovaquone-resistant strain TM90-C2B. The text has this:
Ideally, the RI of a compound should lie between 0.3 and 3.0 in order to avoid rapidly inducing resistance in the parasite. […]

Data set [2] has as its system P. berghei sporozoites expressing luciferase. As to the kind of experiment: in vitro liver stage activity, luciferase sporozoites infecting HEPG2 hepatoma cells. Format: cell-based. As to conditions: HEPG2 cells; for EC50: Plasmodium berghei.
Data set [3] concerns malarial strain W2 (pyrimethamine and chloroquine-resistant). The data set is described as follows: in vitro antimalarial activity against multidrug resistant strain W2. Format: cell-based, P. falciparum. As to conditions: for EC50: Plasmodium falciparum, read-out: EC50 W2 (nM); for EC50 W2 (nM): blood stage in vitro, strain W2.
A further data set has as its system Pb-infected mice. As to the kind of experiment: in vivo efficacy scouting assay against blood stages. Also on record: species or system P. berghei; mice. The following applies: Example 2: two mice, single 50 mg/kg oral dose in PEG400 on day 1 PE. The protocol:
The screening involved a single oral 50 mg/kg dose 1 day post infection (PI) and an assessment of parasitemia on days 3 PI and 6 PI (Table 6).
The screening was performed by treating two infected mice with a single 50 mg/kg oral dose of test compound suspended in PEG400 on day 1 postexposure (PE) followed by assessing parasitemia on days 3 and 6 PE.

Data set [4] in a line: aqueous solubility (LC/MS- or HPLC-based assay). It is filed as physicochemical. As to conditions: aqueous solution (buffer not named), aqueous buffer, Example 2, at any given pH; read-out: solubility. The text has this:
Furthermore, to profile the properties of the piperazinyl-4(1H)-quinolones, and to identify potential limitations, aqueous solubility and lipophilicity log D were experimentally determined via LC/MS-based assays as described by the Manetsch laboratory previously^8,10,31,32 (Tables 9-12). Encouragingly, the piperazinyl-4(1H)-quinolones were much more soluble than the previously described phenoxyethoxy-4(1H)-quinolone analogues.^19 As expected, the solubility of all compounds was affected by pH, with better solubility under more acidic conditions.
In parallel to testing the compounds for in vitro antimalarial activity, a limited structure-property relationship (SPR) study focusing on log D and aqueous solubility was conducted to assess potential physiochemical liabilities (FIG. 22). […] For these reasons, physicochemical properties were not strongly considered as selection criteria for in vivo efficacy studies.

What is called EC50 is the midpoint of the concentration-response curve. As to `CCN(CC)CCCC(C)Nc1ccnc2cc(Cl)ccc12` (stereo not drawn) [CQ, Chloroquine, reference compound], the EC50 with J774 mammalian cells (J774, cytotoxicity, 96 well plate format, read-out: EC50 J774) is 47.2 µM.
`COC(=O)c1c[nH]c2cc(OCCOc3ccccc3)ccc2c1=O` [Compound 6a, Methyl 4-Oxo-7-(2-phenoxyethoxy)-1,4-dihydroquinoline-3-carboxylate] returned an RI in data set [1] of 26.3. In addition, the “EC50 Pb (nM)” value in data set [2] is given as “subnanomolar”. Besides, the figures for the EC50 in data set [2] and in data set [3] were 0.286 nM and 2.8 nM, respectively.
In data set [1], `COC(=O)c1c[nH]c2cc(OCCOc3ccccc3)c(OC)cc2c1=O` [Compound 6aa, Methyl 6-Methoxy-4-oxo-7-(2-phenoxyethoxy)-1,4-dihydroquinoline-3-carboxylate] returned an RI of 1.60.
For `COC(=O)c1c[nH]c2cc(OCCOc3ccccc3)c(Cl)cc2c1=O` [Compound 6ab, Methyl 6-Chloro-4-oxo-7-(2-phenoxyethoxy)-1,4-dihydroquinoline-3-carboxylate], the EC50 amounted to 617 nM in data set [1], 0.063 nM in data set [2] and 9.93 nM in data set [3].
As for `COC(=O)c1c[nH]c2cc(OCCOc3ccccc3)c(C)cc2c1=O` [Compound 6ac, Methyl 6-Methyl-4-oxo-7-(2-phenoxyethoxy)-1,4-dihydroquinoline-3-carboxylate], the EC50 in data set [1] came to 499 nM; in data set [2], 152 nM; in data set [3], 2.01 nM.
As for `CCCCc1cc2c(=O)c(C#N)c[nH]c2cc1OCCOc1ccccc1` [Compound 6ad, 6-Butyl-4-oxo-7-(2-phenoxyethoxy)-1,4-dihydroquinoline-3-carbonitrile], the “EC50 W2 (nM)” value in data set [3] is given as “high double-digit nM range”.
Consider `CCCCc1cc2c(=O)c(C(=O)OCC)c[nH]c2cc1OCCOc1ccccc1` [Compound 6af, Ethyl 6-Butyl-4-oxo-7-(2-phenoxyethoxy)-1,4-dihydroquinoline-3-carboxylate], for which, in data set [2], the “EC50 Pb (nM)” value is recorded as “subnanomolar”. In data set [3], the half-maximal effective concentration (EC50) worked out at 0.143 nM.
On to `CCCCc1cc2c(=O)c(C(C)=O)c[nH]c2cc1OCCOc1ccccc1` [Compound 6ag, 3-Acetyl-6-butyl-7-(2-phenoxyethoxy)quinolin-4(1H)-one], for which, in data set [3], the EC50 came to 9.67 nM.
Turning to `CCCCc1ccc2[nH]cc(C(=O)OC)c(=O)c2c1` [Compound 6c, Methyl 6-Butyl-4-oxo-1,4-dihydroquinoline-3-carboxylate], in data set [1], the EC50 worked out at 222 nM and the RI is 141. In data set [2], the “EC50 Pb (nM)” value is listed as “subnanomolar” and the EC50 was found to be 0.819 nM. Moreover, in data set [3], the EC50 was 1.58 nM.
For `COC(=O)c1c[nH]c2ccccc2c1=O` [Compound 6d, Methyl 4-Oxo-1,4-dihydroquinoline-3-carboxylate], in data set [1], the “EC50 TM90-C2B (nM)” value is listed as “devoid of any activity”. In addition, the “EC50 W2 (nM)” value in data set [3] was “retained respectable potency”.
For `COC(=O)c1c[nH]c2ccc(OCc3ccccc3)cc2c1=O` [Compound 6e, Methyl 6-(Benzyloxy)-4-oxo-1,4-dihydroquinoline-3-carboxylate], the EC50 is 1100 nM in data set [1], 127 nM in data set [2] and 11.6 nM in data set [3].
On to `COC(=O)c1c[nH]c2ccc(OCCc3ccccc3)cc2c1=O` [Compound 6f, Methyl 4-Oxo-6-phenethoxy-1,4-dihydroquinoline-3-carboxylate], for which, in data set [3], the “EC50 W2 (nM)” value is listed as “double-digit nM”.
Turning to `COC(=O)c1c[nH]c2ccc(OCCCc3ccccc3)cc2c1=O` [Compound 6g, Methyl 4-Oxo-6-(3-phenylpropoxy)-1,4-dihydroquinoline-3-carboxylate], in data set [3], the “EC50 W2 (nM)” value is “double-digit nM”. Besides, in the data set with Pb-infected mice, the “% inhibition on day 6 PE” value is reported as “lack of significant parasitemia reduction”.
In the case of `COC(=O)c1c[nH]c2cc(Cl)ccc2c1=O` [Compound 6l, Methyl 7-Chloro-4-oxo-1,4-dihydroquinoline-3-carboxylate], the “EC50 W2 (nM)” value in data set [3] is “devoid of antimalarial activity”.
Regarding `COC(=O)c1c[nH]c2cc(-c3ccccc3)ccc2c1=O` [Compound 6m, Methyl 4-Oxo-7-phenyl-1,4-dihydroquinoline-3-carboxylate], the “EC50 W2 (nM)” value in data set [3] was “devoid of antimalarial activity”.
`COC(=O)c1c[nH]c2cc(F)ccc2c1=O` [Compound 6n, Methyl 7-Fluoro-4-oxo-1,4-dihydroquinoline-3-carboxylate]: the EC50 in data set [1] is 395 nM; in data set [3], 26.2 nM.
Turning to `COC(=O)c1c[nH]c2ccc(-c3ccccc3)cc2c1=O` [Compound 6u, Methyl 4-Oxo-6-phenyl-1,4-dihydroquinoline-3-carboxylate], in data set [3], the “EC50 W2 (nM)” value was “devoid of activity”.
As for `COC(=O)c1c[nH]c2cc(OCCOc3ccccc3)c(Br)cc2c1=O` [Compound 6z, Methyl 6-Bromo-4-oxo-7-(2-phenoxyethoxy)-1,4-dihydroquinoline-3-carboxylate], the EC50 in data set [1] was found to be 847 nM; in data set [2], 0.336 nM; in data set [3], 4.47 nM.
`Cc1[nH]c2cc(CN3CCN(c4ccc(C(F)(F)F)cc4)CC3)ccc2c(=O)c1Br` [Compound 8aq, 3-Bromo-2-methyl-7-((4-(4-(trifluoromethyl)phenyl)piperazin-1-yl)methyl)quinolin-4(1H)-one]: the EC50 was 95.4 nM in data set [1]; above 20 µM in the data set on J774 mammalian cells (J774, read-out: EC50 J774 (μM)); 121 nM in data set [3]. For the same molecule, the RI in data set [1] is on record as 0.79.
`Cc1[nH]c2cc(CN3CCN(c4ccc(C(F)(F)F)cc4)CC3)ccc2c(=O)c1Cl` [Compound 8ar, 3-Chloro-2-methyl-7-((4-(4-(trifluoromethyl)phenyl)piperazin-1-yl)methyl)quinolin-4(1H)-one]: the EC50 in data set [1] is 1510 nM; in the data set on J774 mammalian cells (J774, read-out: EC50 J774 (μM)), above 20 µM; in data set [3] it was 139 nM. The RI in data set [1] was found to be 10.9.
Take `COc1cc2c(=O)c(Br)c(C)[nH]c2cc1CN1CCN(c2ccc(C(F)(F)F)cc2)CC1` [Compound 8at, 3-Bromo-6-methoxy-2-methyl-7-((4-(4-(trifluoromethyl)phenyl)piperazin-1-yl)methyl)quinolin-4(1H)-one]: the EC50 in data set [1] was above 5000 nM; with J774 mammalian cells (J774, read-out: EC50 J774 (μM)), above 20 µM; in data set [3], 128 nM. For the same molecule, the RI in data set [1] was above 39.1.
For `CCCCc1cc2c(=O)c(C(=O)NC)c[nH]c2cc1OCCOc1ccccc1` [Compound 13a, 6-Butyl-N-methyl-4-oxo-7-(2-phenoxyethoxy)-1,4-dihydroquinoline-3-carboxamide], the values for the EC50 in data set [1] and in data set [3] were 3980 nM and 13.3 nM, respectively.
In general, solubility refers to the dissolved amount per volume that the medium holds. As to `CCCCc1cc2c(=O)c(C(=O)NCCO)c[nH]c2cc1OCCOc1ccccc1` [Compound 13d, 6-Butyl-N-(2-hydroxyethyl)-4-oxo-7-(2-phenoxyethoxy)-1,4-dihydroquinoline-3-carboxamide], the solubility in data set [4] was above 20 µM.
For `CCCCc1cc2c(=O)c(C(=O)NC(C)C)c[nH]c2cc1OCCOc1ccccc1` [Compound 13e, 6-Butyl-N-isopropyl-4-oxo-7-(2-phenoxyethoxy)-1,4-dihydroquinoline-3-carboxamide], in data set [3], the “EC50 W2 (nM)” value was “completely inactive”.
For `CCCCc1cc2c(=O)c(I)c[nH]c2cc1OCCOc1ccccc1` [Compound 16b, 6-Butyl-3-iodo-7-(2-phenoxyethoxy)quinolin-4(1H)-one], the figures for the concentration for a half-maximal effect (EC50) in data set [1] and in data set [3] were 6.04 nM and 1.23 nM, respectively. In data set [1], the RI was 4.91.
In the case of `CCCCc1cc2c(=O)c(Br)c[nH]c2cc1OCCOc1ccccc1` [Compound 16d, 3-Bromo-6-butyl-7-(2-phenoxyethoxy)quinolin-4(1H)-one], the EC50 in data set [1] was 48.7 nM; in data set [3], 4.64 nM.
Regarding `CCCCc1cc2c(=O)c(Cl)c(C)[nH]c2cc1OCCOc1ccccc1` [Compound 16e, 6-Butyl-3-chloro-2-methyl-7-(2-phenoxyethoxy)quinolin-4(1H)-one], in data set [1], the EC50 was 67.7 nM and the RI amounted to 9.79. In addition, in data set [3], the EC50 was determined as 6.92 nM.
For the molecule `C[C@H]1[C@@H](O)O[C@@H]2O[C@@]3(C)CC[C@H]4[C@H](C)CC[C@@H]1[C@@]24OO3` [DHA, dihydroartemisinin, reference compound], the concentration giving a half-maximal response (EC50) in the data set with J774 mammalian cells (J774, read-out: EC50 J774 (μM)) is 1.53 µM.
Molecule “Methyl 4-oxo-7-(4-phenylpiperazin-1-yl)-1,4-dihydroquinoline-3-carboxylate [Compound 8a]” showed an RI in data set [1] of around 1. In data set [3], the “EC50 W2 (nM)” value is given as “inhibition against W2 was lost”.
With “Methyl 6-methyl-4-oxo-7-(4-phenylpiperazin-1-yl)-1,4-dihydroquinoline-3-carboxylate [Compound 8c]”, in data set [1], the “EC50 TM90-C2B (nM)” value is listed as “devoid of any activity”. The “EC50 W2 (nM)” value in data set [3] is on record as “retained respectable potency”.
